In PMC3606385 (PLoS ONE, 2013):
“Also recorded” adds a separate entry of the source. Like-named read-outs stand apart in the source and are kept apart here. One block for each compound: values may come before it.

Key:
mouse 11β-HSD1 = conditions: cited from earlier work
hyperglycemic KKAy mouse = system: hyperglycemic KKAy mouse; set-up: method as in PMID 12190302; conditions: hyperglycemic KKAy mouse model; cited from earlier work
Human 11β-HSD1 [1] = target: T1, Human 11β-HSD1 (Homo sapiens, UniProt P28845); conditions: cited from earlier work
T1 construct: expressed in transfected cells; host or cells: CHOP cells (transient, FuGENE)

Human 11β-HSD2 [2] = target: T2, Human 11β-HSD2 (Homo sapiens, UniProt P80365); conditions: cited from earlier work
T2 construct: The rat and human kidney microsomes were used for 11β-HSD2 sources; tissue Gentest (Woburn, MA); host or cells: human kidney microsomes
T2 sequence (P80365 1-405): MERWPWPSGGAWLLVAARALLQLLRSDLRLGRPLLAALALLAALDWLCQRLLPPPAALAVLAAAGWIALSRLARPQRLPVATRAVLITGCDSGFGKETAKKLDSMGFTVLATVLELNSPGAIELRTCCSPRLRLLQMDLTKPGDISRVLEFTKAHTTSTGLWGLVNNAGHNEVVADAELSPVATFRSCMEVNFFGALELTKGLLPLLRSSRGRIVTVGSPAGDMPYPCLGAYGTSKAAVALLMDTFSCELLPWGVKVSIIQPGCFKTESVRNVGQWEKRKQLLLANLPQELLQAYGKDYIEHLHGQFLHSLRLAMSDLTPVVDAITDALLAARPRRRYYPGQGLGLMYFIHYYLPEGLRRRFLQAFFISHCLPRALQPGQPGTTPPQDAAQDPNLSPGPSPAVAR

mouse 11β-HSD2 = system: mouse 11β-HSD2; set-up: method as in PMID 16103409; conditions: cited from earlier work
Rat 11β-HSD1 = target: T3, Rat 11β-HSD1 (Rattus norvegicus, UniProt P16232); assay: 11β-HSD1 assay in intact rat Leydig cells; assay type: cell-based; conditions: intact rat Leydig cells
T3 construct: endogenous in cells; host or cells: primary adult Sprague-Dawley rat Leydig cells
Protocol: Rat Leydig cells contain the highest 11β-HSD1 activity in all cell types of rat tissues, and were used for rat 11β-HSD1 enzyme sources. Purified rat Leydig cells were obtained from 90-day-old Sprague-Dawley rats by collagenase digestion of the testes followed by Percoll density centrifugation of the cell suspension, according to the previously described method. […] The purity of cell fractions was evaluated by histochemical staining for 3β-hydroxysteroid dehydrogenase activity with […] etiocholanolone as the steroid substrate.
(§1) 11β-HSD1 reductase activity was performed in intact cells using endogenous cofactor NADPH as described previously. […] 25×10^3 cells were added to each tube to initiate the reaction and the reaction mixture was incubated for up to 2 hrs, during which the reaction is within the linear range. At the end of reaction, the reaction was stopped by adding 2 ml ice-cold ether. The steroids were extracted, and the organic layer was dried under nitrogen. The steroids were separated chromatographically on thin layer plates in chloroform and methanol (90∶10, v/v), and the radioactivity was measured using a scanning radiometer (System AR2000, Bioscan Inc., Washington, DC) as described previously. The percentage conversion of 11DHC to CORT or cortisone to cortisol was calculated by dividing the radioactive counts identified as 11-OH-steroids by the total counts.
(§2) The IC50 was determined by adding different concentrations of each compound in the 11β-HSD1 or 11β-HSD2 reaction as described. The mode of inhibition was assayed by adding various concentrations of steroid substrates in the presence of an inhibitor as described.

Human 11β-HSD1 [3] = target: T1, Human 11β-HSD1; assay: 11β-HSD1 assay in intact CHOP cells transfected with human HSD11B1; assay type: cell-based
Protocol: An expression plasmid was constructed to express human 11β-HSD1 (HSD11B1) cDNA in pcDNA I expression vector from its original human HSD11B1 vector (pBluescriptSK+).[15]. The Escherichia coli transformants carrying an insert were selected by colony hybridization, and a clone with the insert in the correct orientation relative to the vector T7 promoter was identified by restriction mapping. All transfections were carried out on 80% confluent cultures in 12-well plates. Aliquots of 1 µg HSD11B1 pcDNA I were transfected into mammalian CHOP cells with the FuGENE Transfection Reagent (Roche) according to manufacturer's protocol. Cells were allowed to grow for 24 hours in media containing 10% fetal bovine serum. Then media were removed and cells were harvested for 11β-HSD1 activity assay.
as §1, §2

Rat 11β-HSD2 = target: T4, Rat 11β-HSD2 (Rattus norvegicus, UniProt P50233); assay: 11β-HSD2 assay in rat kidney microsomes; assay type: biochemical
T4 construct: from tissue; host or cells: rat kidney microsomes
T4 sequence (P50233 1-400): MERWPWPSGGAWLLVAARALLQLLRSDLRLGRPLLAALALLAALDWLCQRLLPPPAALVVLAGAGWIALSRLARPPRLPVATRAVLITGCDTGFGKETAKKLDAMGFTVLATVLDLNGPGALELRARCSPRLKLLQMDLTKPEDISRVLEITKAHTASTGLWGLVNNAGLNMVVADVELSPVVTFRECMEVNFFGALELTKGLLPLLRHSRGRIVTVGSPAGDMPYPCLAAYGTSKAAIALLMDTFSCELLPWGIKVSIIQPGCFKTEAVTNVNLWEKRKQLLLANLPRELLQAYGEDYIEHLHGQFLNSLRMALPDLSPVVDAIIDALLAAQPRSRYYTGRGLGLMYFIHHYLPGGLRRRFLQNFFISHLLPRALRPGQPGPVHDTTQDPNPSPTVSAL
Protocol: Rats were euthanized by CO2, and livers, testes and kidneys were collected. Rat liver, testis and kidney microsomes were prepared as described previously. In brief, rat liver and kidney were homogenized in […] PBS buffer containing 0.25 M sucrose, and nuclei and large cell debris were removed by centrifugation at 1500× g for 10 min. The post-nuclear supernatants were centrifuged twice at 105,000×g, the resultant microsomal pellets were resuspended. Protein contents were measured by Bio-Rad Dye Reagent Concentrate (Cat.#500-0006). Microsomes were used for measurement of 11β-HSD1 and 11β-HSD2 activities.
The rat and human kidney microsomes were used for 11β-HSD2 sources. 11β-HSD2 activity was performed in the microsome according to a previously described method. […] 8 (rat) or 20 (human) µg kidney microsomes were added to each tube to initiate the reaction and the reaction mixture was incubated for up to 3 hrs, during which the reaction is within the linear range. The rest procedure was similar to 11β-HSD1 assay. The percentage conversion of CORT to 11DHC or cortisol to cortisone was calculated by dividing the radioactive counts identified as 11keto-steroids by the total counts.
as §2

Human 11β-HSD2 [4] = target: T2, Human 11β-HSD2; assay: 11β-HSD2 assay in human kidney microsomes; assay type: biochemical
Protocol: The rat and human kidney microsomes were used for 11β-HSD2 sources. 11β-HSD2 activity was performed in the microsome according to a previously described method. In brief, the assay tubes contained 25 nM substrate CORT (for rat) or cortisol (for human), spiked with 30,000 cpm their respective ^3H-11β-hydroxyl steroid, 0.2 mM NAD+ and 0.1 mM DTT in the PBS buffer. 8 (rat) or 20 (human) µg kidney microsomes were added to each tube to initiate the reaction and the reaction mixture was incubated for up to 3 hrs, during which the reaction is within the linear range. The rest procedure was similar to 11β-HSD1 assay. The percentage conversion of CORT to 11DHC or cortisol to cortisone was calculated by dividing the radioactive counts identified as 11keto-steroids by the total counts.
as §2

[5] = target: T5, rat liver microsomal 11β-HSD1 (Rattus norvegicus, UniProt P16232); assay: Mode of inhibition (Lineweaver-Burk), rat liver microsomal 11β-HSD1; assay type: biochemical; conditions: Lineweaver-Burk plot, substrate 11DHC
T5 construct: Rat liver, testis and kidney microsomes were prepared as described previously; from tissue; host or cells: rat liver microsomes
Protocol: (§3) The rat testis and liver or human liver microsomes were used for 11β-HSD1 assay. 11β-HSD1 activity was performed in the microsome according to a previously described method. In brief, the assay tubes contained 25 nM substrate 11DHC (for rat) or cortisone (for human), spiked with 30,000 cpm their respective ^3H-11keto-steroid, 0.2 mM NADPH and 5 mM glucose-6-phosphaare in the PBS buffer. 2 µg microsomes were added to each tube to initiate the reaction and the reaction mixture was incubated for up to 2 hrs, during which the reaction is within the linear range. The rest procedure was similar to 11β-HSD1 assay in intact cells.
as §2
(§4) Enzyme data were subjected to nonlinear analysis by GraphPad (Version 5, GraphPad Software Inc., San Diego, CA) for IC50. Lineweaver-Burk plot was used for the mode of inhibition. Data were subjected to analysis by one-way ANOVA followed by Tukey's multiple comparisons testing to identify significant differences between groups when three were calculated. Differences were regarded as significant at P<0.05.

human liver 11β-HSD1 = target: T6, human liver 11β-HSD1 (Homo sapiens, UniProt P28845); assay: Mode of inhibition, human liver 11β-HSD1; assay type: biochemical; conditions: data not shown
T6 construct: tissue Gentest (Woburn, MA); host or cells: human liver microsomes
Protocol: as §3, §2, §4

T1 sequence (P28845 whole entry): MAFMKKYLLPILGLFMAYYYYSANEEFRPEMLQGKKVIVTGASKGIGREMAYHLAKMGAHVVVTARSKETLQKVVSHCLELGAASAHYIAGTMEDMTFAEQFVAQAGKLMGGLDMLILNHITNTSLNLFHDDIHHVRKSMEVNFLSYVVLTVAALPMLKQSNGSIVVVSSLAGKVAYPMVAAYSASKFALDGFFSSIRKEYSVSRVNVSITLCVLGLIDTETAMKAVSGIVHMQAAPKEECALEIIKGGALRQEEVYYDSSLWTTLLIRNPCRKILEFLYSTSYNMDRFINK
T6 sequence (P28845 whole entry): as above
T3 sequence (P16232 whole entry): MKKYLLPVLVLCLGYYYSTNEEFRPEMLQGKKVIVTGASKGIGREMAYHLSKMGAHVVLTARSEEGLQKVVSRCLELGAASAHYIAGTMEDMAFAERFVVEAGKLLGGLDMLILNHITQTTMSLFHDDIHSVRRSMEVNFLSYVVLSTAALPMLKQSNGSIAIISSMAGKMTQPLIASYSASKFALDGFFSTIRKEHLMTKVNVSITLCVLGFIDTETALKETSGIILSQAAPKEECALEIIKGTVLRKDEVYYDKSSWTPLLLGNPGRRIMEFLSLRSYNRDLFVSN
T5 sequence (P16232 whole entry): as above

Compound: BVT2733
IC50 (mouse 11β-HSD1; mouse enzyme): 96 nM | Effect on blood glucose level (hyperglycemic KKAy mouse): significantly lowered

Compound: C1CCc2nnc(C34CC5CC(CC(C5)C3)C4)n2CC1 [MK544]
IC50 (Human 11β-HSD1 [1]): 7.8 nM | IC50 (mouse 11β-HSD1): 98 nM | Selectivity over human 11β-HSD2 (Human 11β-HSD2 [2]): > 450 fold | Selectivity over mouse 11β-HSD2 (mouse 11β-HSD2): > 100 fold

Rat 11β-HSD1 Potency to Curcumin (fold) (Rat 11β-HSD1; relative to curcumin): 31.44 fold | IC50 (Rat 11β-HSD1; read-out: Rat 11β-HSD1 IC50 (nM) in Leydig cells): 184 nM | Human 11β-HSD1 Potency to Curcumin (fold) (Human 11β-HSD1 [3]; CHOP cells transfected with human HSD11B1, relative to curcumin): 24.68 fold | IC50 (Human 11β-HSD1 [3]; CHOP cells transfected with human HSD11B1, read-out: Human 11β-HSD1 IC50 (nM) in CHOP cells): 93 nM | Inhibition of rat 11β-HSD2 at 100 µM (Rat 11β-HSD2; 100 µM): did not inhibit | IC50 (Rat 11β-HSD2; rat kidney microsomes): > 100000 nM | Inhibition of human 11β-HSD2 at 100 µM (Human 11β-HSD2 [4]; 100 µM): did not inhibit | IC50 (Human 11β-HSD2 [4]; human kidney microsomes, read-out: IC50 (nM) Human 11β-HSD2): > 100000 nM
Compound: O=C(/C=C/c1cccs1)/C=C/c1cccs1 [compound 6, (1E,4E)-1,5-bis(thiophen-2-yl) penta-1,4-dien-3-one]
Mode of inhibition of rat 11β-HSD1 [5]: competitive mode; also recorded: competitive inhibitor | Mode of inhibition of human 11β-HSD1 (human liver 11β-HSD1): same mode; also recorded: competitive inhibitor
